Laboratory results published in publication PMC3391414 (Journal of Agricultural and Food Chemistry, 2011).
Entries after “also recorded” stand apart in the source; their conditions may differ. Read-outs that look alike come from different tables or passages of the source.

Experiments:
[1] = cited from earlier work
UGT1A1 = target: T1, UGT1A1 (Homo sapiens, UniProt P22309); assay: Glucuronidation by recombinant human UGT1A1
T1 sequence (P22309 26-533): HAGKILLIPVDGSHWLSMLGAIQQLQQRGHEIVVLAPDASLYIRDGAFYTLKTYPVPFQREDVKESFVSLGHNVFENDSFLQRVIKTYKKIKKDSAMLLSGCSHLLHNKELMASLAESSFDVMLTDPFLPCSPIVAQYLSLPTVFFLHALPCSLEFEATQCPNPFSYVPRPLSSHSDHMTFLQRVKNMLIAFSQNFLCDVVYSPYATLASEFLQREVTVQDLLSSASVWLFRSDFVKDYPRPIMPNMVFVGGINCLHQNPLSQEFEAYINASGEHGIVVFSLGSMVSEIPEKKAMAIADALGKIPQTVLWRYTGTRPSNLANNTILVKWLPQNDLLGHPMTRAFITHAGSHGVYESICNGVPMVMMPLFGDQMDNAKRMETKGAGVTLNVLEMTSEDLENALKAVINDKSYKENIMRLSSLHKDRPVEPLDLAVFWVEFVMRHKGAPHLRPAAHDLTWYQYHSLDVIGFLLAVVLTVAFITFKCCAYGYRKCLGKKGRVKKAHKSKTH

UGT1A6 [2] = target: T2, UGT1A6 (Homo sapiens, UniProt P19224); assay: Glucuronidation by recombinant human UGT1A6; conditions: UGT1A6, substrate 10 μM
T2 sequence (P19224 27-532): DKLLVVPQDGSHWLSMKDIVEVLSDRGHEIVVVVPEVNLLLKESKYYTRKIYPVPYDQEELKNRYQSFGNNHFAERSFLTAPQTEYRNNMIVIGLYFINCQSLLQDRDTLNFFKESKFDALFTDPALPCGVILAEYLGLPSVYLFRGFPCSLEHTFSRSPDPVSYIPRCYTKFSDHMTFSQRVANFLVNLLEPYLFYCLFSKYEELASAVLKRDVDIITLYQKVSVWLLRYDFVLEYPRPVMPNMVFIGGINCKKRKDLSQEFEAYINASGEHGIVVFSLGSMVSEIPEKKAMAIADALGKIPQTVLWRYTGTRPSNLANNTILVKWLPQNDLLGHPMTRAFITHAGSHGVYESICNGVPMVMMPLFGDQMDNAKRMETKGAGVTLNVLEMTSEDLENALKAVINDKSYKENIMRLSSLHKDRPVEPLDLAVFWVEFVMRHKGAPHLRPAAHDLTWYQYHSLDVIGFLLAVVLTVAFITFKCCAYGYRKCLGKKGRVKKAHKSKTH

UGT1A9 = target: T3, UGT1A9 (Homo sapiens, UniProt O60656); assay: Glucuronidation by recombinant human UGT1A9
T3 sequence (O60656 26-530): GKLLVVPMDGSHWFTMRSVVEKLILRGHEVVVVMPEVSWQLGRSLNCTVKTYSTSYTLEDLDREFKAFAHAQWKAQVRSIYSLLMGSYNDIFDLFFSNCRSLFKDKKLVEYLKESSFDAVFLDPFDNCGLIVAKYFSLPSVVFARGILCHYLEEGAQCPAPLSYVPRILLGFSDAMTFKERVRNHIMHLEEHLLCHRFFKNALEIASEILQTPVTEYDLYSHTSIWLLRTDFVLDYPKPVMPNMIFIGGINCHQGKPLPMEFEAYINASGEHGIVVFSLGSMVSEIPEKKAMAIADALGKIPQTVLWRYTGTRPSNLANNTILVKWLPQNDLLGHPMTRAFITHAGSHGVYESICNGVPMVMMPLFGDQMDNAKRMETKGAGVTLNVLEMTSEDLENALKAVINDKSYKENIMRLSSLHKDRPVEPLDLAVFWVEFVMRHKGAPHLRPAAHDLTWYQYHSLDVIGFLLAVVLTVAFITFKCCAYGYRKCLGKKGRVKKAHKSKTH

UGT2B7 [3] = target: T4, UGT2B7 (Homo sapiens, UniProt P16662); assay: Glucuronidation by recombinant human UGT2B7; conditions: UGT2B7, substrate 10 μM
T4 sequence (P16662 24-529): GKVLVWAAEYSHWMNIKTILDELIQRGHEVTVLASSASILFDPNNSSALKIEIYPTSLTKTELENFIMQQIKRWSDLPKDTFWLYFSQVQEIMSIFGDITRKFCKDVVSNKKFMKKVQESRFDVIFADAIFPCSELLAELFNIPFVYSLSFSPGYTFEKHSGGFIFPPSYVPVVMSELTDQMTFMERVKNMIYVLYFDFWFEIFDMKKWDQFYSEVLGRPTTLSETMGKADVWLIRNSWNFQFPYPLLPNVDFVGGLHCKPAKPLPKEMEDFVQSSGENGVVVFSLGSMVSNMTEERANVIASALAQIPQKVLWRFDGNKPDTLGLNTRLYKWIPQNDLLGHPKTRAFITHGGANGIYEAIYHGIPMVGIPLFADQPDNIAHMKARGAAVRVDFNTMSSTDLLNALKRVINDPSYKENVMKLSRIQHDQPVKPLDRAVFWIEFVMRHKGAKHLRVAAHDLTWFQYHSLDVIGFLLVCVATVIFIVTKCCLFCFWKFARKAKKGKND

[4] = system: UGT 1A1, 1A3, 1A6, 1A7, 1A8, 1A9, 1A10 and 2B7; assay: Glucuronidation by the panel of 8 recombinant human UGT isoforms; conditions: substrate 10 μM
UGT1A6 [5] = target: T2, UGT1A6; conditions: 10 μM, pH 7.4
UGT2B7 [6] = target: T4, UGT2B7; conditions: 10 μM, pH 7.4

Degree of regiospecificity (major glucuronide in bracket) (UGT1A1; UGT1A1, substrate 2.5 μM)	Degree of regiospecificity (major glucuronide in bracket) (UGT1A1; UGT1A1, substrate 10 μM)	Hydroxyl positions glucuronidated (UGT1A1; UGT1A1, substrate 10 μM)	Degree of regiospecificity (3-O vs 7-O) (UGT1A1; UGT1A1, substrate 35 μM)	Hydroxyl positions glucuronidated (UGT1A6 [2])	Degree of regiospecificity (major glucuronide in bracket) (UGT1A9; UGT1A9, substrate 2.5 μM)	Degree of regiospecificity (major glucuronide in bracket) (UGT1A9; UGT1A9, substrate 10 μM)	Degree of regiospecificity (3-O vs 7-O) (UGT1A9; UGT1A9, substrate 35 μM)	Hydroxyl positions glucuronidated (UGT2B7 [3])	Structure (SMILES)	Predominant form in plasma ([1]; after oral intake in human)	Degree of regiospecificity (major glucuronide in bracket) (UGT1A1; UGT1A1, substrate 2.5 μM, listed as 5,7,4’THFnol)	Degree of regiospecificity (major glucuronide in bracket) (UGT1A1; UGT1A1, substrate 10 μM, listed as 5,7,4’THFnol)	Degree of regiospecificity (major glucuronide in bracket) (UGT1A9; UGT1A9, substrate 2.5 μM, listed as 5,7,4’THFnol)	Hydroxyl positions glucuronidated (UGT1A9; UGT1A9, substrate 10 μM)	Degree of regiospecificity (major glucuronide in bracket) (UGT1A9; UGT1A9, substrate 10 μM, listed as 5,7,4’THFnol)	Glucuronidation and regiospecificity across the 8 UGT isoforms [4]	Hydroxyl positions glucuronidated (UGT1A6 [5])	Hydroxyl positions glucuronidated (UGT2B7 [6])	Glucuronide predominantly formed ([1]; human volunteers)
Weak (7-O)	No (3-O, 7-O)	glucuronidated 3-O, 7-O and 4’-O	no regiospecificity	glucuronidated only 7-O and 4’-O	Moderate (3-O)	Weak (3-O)	no regiospecificity	glucuronidated only 7-O and 4’-O	O=c1c(O)c(-c2ccc(O)cc2)oc2cc(O)cc(O)c12 [5,7,4'THFnol, 3,5,7,4’-tetrahydroxyflavone]	3-O-glucuronide of kaempferol was found to be the predominant form in plasma	weakly preferred the glucuronidation of 7-O position	no regiospecific preference between 3-O and 7-O; also recorded: no regiospecificity	moderate regiospecificity for glucuronidation of 3-O position	glucuronidated only 3-O and 7-O positions	only weakly preferred 3-O position; also recorded: weak regiospecificity for glucuronidation of 3-O position	5-O position was not significantly glucuronidated by any isoform			
									O=c1cc(-c2ccccc2)oc2cc(O)cc(O)c12 [5,7DHF, 5,7-dihydroxyflavone]								glucuronidated both 7-O and 5-O positions	glucuronidated both 7-O and 5-O positions	predominantly form 7-O-glucuronide
